Data reported in patent US20140274881A1, “BIODEGRADABLE THERAPEUTIC NANOPARTICLES CONTAINING AN ANTIMICROBIAL AGENT” (CAROLINAS HEALTHCARE SYSTEM, priority 2008, published 2014).

Experiments:
[1] = In vitro drug release by dialysis method under sink conditions; assay type: physicochemical; conditions: nafcillin-PBS solution without polymer nanoparticles in dialysis bag, 37° C.
Text: A dialysis method was used in the measurement of in vitro drug release. Drug release studies were done under sink conditions; the volume of the buffer was kept large (outer sink) compared to the volume of drug-loaded nanoparticles suspension in the dialysis bag. The (theoretical) situation of infinite dilution is known as a perfect sink; however, even though perfect sink conditions are never attainable in practice, they are the only situation in which a true release profile can be measured. For a given matrix volume, an increase in liquid volume or volume ratio will promote drug release due to the lower drug concentrations in the medium. The system developed was continuously agitated, resulting in the faster diffusion of drug through the dialysis membrane to the outer sink. FIG. 9A is a plot of cumulative drug release (%) versus time in hours, for release of nafcillin from nafcillin-PBS solution loaded in a dialysis bag with a molecular weight cut-off of 6 kDa at 37° C. FIG. 9B is a plot of cumulative drug release (%) versus time in hours for release of nafcillin from nafcillin-PBS solution loaded in a dialysis bag with a molecular weight cut-off of 12-14 kDa at 37° C. The release of nafcillin from nafcillin-PBS solution without polymer nanoparticles was rapid, since 97% of the drug was released within the first nine (9) hours. […]

[2] = test system: intracellular S. aureus; test: Viability of intracellular S. aureus in infected osteoblasts treated with nanoparticles; assay type: cell-based, Staphylococcus aureus; conditions: nafcillin alone, no nanoparticles
Description: The viability of intracellular S. aureus following treatment with nanoparticles was determined. S. aureus was allowed to infect cultured primary mouse osteoblasts as described herein, followed by removal and killing of all remaining extracellular bacteria in culture. […] None of the nanoparticle preparations had any effect on osteoblast viability. All loaded formulations of particles caused a significant decrease in the viability of intracellular S. aureus inside infected osteoblasts at both 24 and 48 hours.
FIG. 11 is a bar graph showing viability of intracellular S. aureus in osteoblasts treated with nanoparticles or nanoparticles loaded with nafcillin. Primary mouse osteoblasts were infected intracellularly with S. aureus and were subsequently treated with unloaded nanoparticles (G1 and G2) or nanoparticles loaded with nafcillin (G1.1, 1.2, 2.1 and 2.2) for 1 (0 hour), 24 and 48 hours. Osteoblasts were subsequently lysed following these time intervals with a solution containing 0.1% triton X-100, and serial dilutions of the lysates were plated on tryptic soy agar (TSA). Following an overnight incubation at 37° C., numbers of viable bacteria were enumerated, *, P<0.05 versus S. aureus-treated osteoblasts at the same time point. […]
Following resuspension in OBGM, bacterial cell density is determined via spectrophotometric analysis. […]

- cumulative drug release within the first nine (9) hours [1]: 97%
SMILES: CCOc1ccc2ccccc2c1C(=O)N[C@@H]1C(=O)N2[C@@H]1SC(C)(C)[C@@H]2C(=O)O [nafcillin, Nafcillin]
- viability of intracellular S. aureus, compared with untreated infected osteoblasts [2]: indistinguishable from untreated S. aureus-infected osteoblasts
